pIC50: −log10 of the molar value.
Tests used:
Assay in all cases: cells
COLO-824 = assay type: functional, cell-based, Homo sapiens; conditions: Homo sapiens, COLO-824
Description: SANGER: Inhibition of human COLO-824 cell growth in a cell viability assay.

COR-L105 = assay type: functional, cell-based, Homo sapiens; conditions: Homo sapiens, COR-L105;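 also: cell growth inhibition determined with a viability assay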
Description: SANGER: Inhibition of human COR-L105 cell growth in a cell viability assay.

COR-L88 = assay type: functional, cell-based; conditions: Homo sapiens;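 also: growth inhibition of COR-L88 cells, read out with a cell viability assay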
Description: SANGER: Inhibition of human COR-L88 cell growth in a cell viability assay.

CP66-MEL = assay type: functional, cell-based, Homo sapiens; conditions: Homo sapiens, CP66-MEL;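 also: growth inhibition of CP66-MEL cells determined in a cell viability assay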
Description: SANGER: Inhibition of human CP66-MEL cell growth in a cell viability assay.

CW-2 = assay type: functional, cell-based, Homo sapiens; conditions: Homo sapiens, CW-2;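 also: growth inhibition of CW-2 cells, read out by a cell viability assay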
Description: SANGER: Inhibition of human CW-2 cell growth in a cell viability assay.

D-247MG = assay type: functional, cell-based, Homo sapiens; conditions: Homo sapiens, D-247MG
Description: SANGER: Inhibition of human D-247MG cell growth in a cell viability assay.

DBTRG-05MG = assay type: functional, cell-based, Homo sapiens; conditions: Homo sapiens, DBTRG-05MG;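 also: cell viability assay measuring growth inhibition of human DBTRG-05MG cells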
Description: SANGER: Inhibition of human DBTRG-05MG cell growth in a cell viability assay.

DMS-114 = assay type: functional, cell-based, Homo sapiens; conditions: Homo sapiens, DMS-114
DoTc2-4510 = assay type: functional, cell-based, Homo sapiens; conditions: Homo sapiens, DoTc2-4510
ES3 = assay type: functional, cell-based, Homo sapiens; conditions: Homo sapiens, ES3;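 also: growth inhibition of ES3 cells, read out with a cell viability assay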
Description: SANGER: Inhibition of human ES3 cell growth in a cell viability assay.

EW-16 = assay type: functional, cell-based, Homo sapiens; conditions: Homo sapiens, EW-16;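 also: growth inhibition of human EW-16 cells, read out as cell viability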
Description: SANGER: Inhibition of human EW-16 cell growth in a cell viability assay.

G-401 = assay type: functional, cell-based, Homo sapiens; conditions: Homo sapiens, G-401
Description: SANGER: Inhibition of human G-401 cell growth in a cell viability assay.

GI-1 = assay type: functional, cell-based, Homo sapiens; conditions: Homo sapiens, GI-1;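 also: growth inhibition of human GI-1 cells, measured with a cell viability readout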
Description: SANGER: Inhibition of human GI-1 cell growth in a cell viability assay.

GP5d = assay type: functional, cell-based, Homo sapiens; conditions: Homo sapiens, GP5d;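 also: growth inhibition of human GP5d cells, read out with a cell viability assay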
Description: SANGER: Inhibition of human GP5d cell growth in a cell viability assay.

HD-MY-Z = assay type: functional, cell-based, Homo sapiens; conditions: Homo sapiens, HD-MY-Z;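 also: growth inhibition of HD-MY-Z cells, read out with a cell viability assay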
Description: SANGER: Inhibition of human HD-MY-Z cell growth in a cell viability assay.

HT-1376 = assay type: functional, cell-based, Homo sapiens; conditions: Homo sapiens, HT-1376
Description: SANGER: Inhibition of human HT-1376 cell growth in a cell viability assay.

Huh-7 = assay type: functional, cell-based, Homo sapiens; conditions: Homo sapiens, Huh-7;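 also: HuH-7 cell growth inhibition, read out with a cell viability assay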
Description: SANGER: Inhibition of human HuH-7 cell growth in a cell viability assay.

IST-MES1 = assay type: functional, cell-based, Homo sapiens; conditions: Homo sapiens, IST-MES1;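 also: growth inhibition of IST-MES1 cells, measured with a cell viability assay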
Description: SANGER: Inhibition of human IST-MES1 cell growth in a cell viability assay.

K562 = assay type: functional, cell-based; conditions: Homo sapiens
Description: SANGER: Inhibition of human K-562 cell growth in a cell viability assay.

K5 = assay type: functional, cell-based, Homo sapiens; conditions: Homo sapiens, K5
Description: SANGER: Inhibition of human K5 cell growth in a cell viability assay.

LB2518-MEL = assay type: functional, cell-based, Homo sapiens; conditions: Homo sapiens, LB2518-MEL;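 also: growth inhibition of human LB2518-MEL cells, measured with a cell viability assay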
Description: SANGER: Inhibition of human LB2518-MEL cell growth in a cell viability assay.

LB771-HNC = assay type: functional, cell-based, Homo sapiens; conditions: Homo sapiens, LB771-HNC;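 also: growth inhibition of LB771-HNC human cells, read out with a cell viability assay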
Description: SANGER: Inhibition of human LB771-HNC cell growth in a cell viability assay.

M14 = assay type: functional, cell-based, Homo sapiens; conditions: Homo sapiens, M14;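 also: growth inhibition of M14 cells, read out with a cell viability assay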
Description: SANGER: Inhibition of human M14 cell growth in a cell viability assay.

MDA-MB-175-VII = assay type: functional, cell-based, Homo sapiens; conditions: Homo sapiens, MDA-MB-175-VII
MMAC-SF = assay type: functional, cell-based, Homo sapiens; conditions: Homo sapiens, MMAC-SF;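 also: growth inhibition of human MMAC-SF cells, read out with a cell viability assay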
Description: SANGER: Inhibition of human MMAC-SF cell growth in a cell viability assay.

MN-60 = assay type: functional, cell-based; conditions: Homo sapiens;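 also: growth inhibition of the MN-60 cell line, determined with a cell viability assay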
Description: SANGER: Inhibition of human MN-60 cell growth in a cell viability assay.

NB13 = assay type: functional, cell-based, Homo sapiens; conditions: Homo sapiens, NB13;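 also: cell viability readout measuring growth inhibition of human NB13 cells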
Description: SANGER: Inhibition of human NB13 cell growth in a cell viability assay.

NB69 = assay type: functional, cell-based, Homo sapiens; conditions: Homo sapiens, NB69;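 also: growth inhibition of NB69 cells, determined by a cell viability assay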
Description: SANGER: Inhibition of human NB69 cell growth in a cell viability assay.

NCI-H1563 = assay type: functional, cell-based, Homo sapiens; conditions: Homo sapiens, NCI-H1563;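 also: growth inhibition of human NCI-H1563 cells, read out with a cell viability assay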
Description: SANGER: Inhibition of human NCI-H1563 cell growth in a cell viability assay.

NCI-H1650 = assay type: functional, cell-based, Homo sapiens; conditions: Homo sapiens, NCI-H1650;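 also: growth inhibition of human NCI-H1650 cells measured by a cell viability assay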
Description: SANGER: Inhibition of human NCI-H1650 cell growth in a cell viability assay.

NCI-H23 = assay type: functional, cell-based, Homo sapiens; conditions: Homo sapiens, NCI-H23;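 also: cell viability assay measuring growth inhibition of NCI-H23 cells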
Description: SANGER: Inhibition of human NCI-H23 cell growth in a cell viability assay.

NCI-H596 = assay type: functional, cell-based, Homo sapiens; conditions: Homo sapiens, NCI-H596;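 also: growth inhibition of NCI-H596 cells, read out with a cell viability assay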
Description: SANGER: Inhibition of human NCI-H596 cell growth in a cell viability assay.

NCI-N87 = assay type: functional, cell-based, Homo sapiens; conditions: Homo sapiens, NCI-N87;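 also: growth inhibition of human NCI-N87 cells, read out with a cell viability assay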
Description: SANGER: Inhibition of human NCI-N87 cell growth in a cell viability assay.

OAW-28 = assay type: functional, cell-based, Homo sapiens; conditions: Homo sapiens, OAW-28;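 also: growth inhibition of OAW-28 cells, read out with a cell viability assay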
Description: SANGER: Inhibition of human OAW-28 cell growth in a cell viability assay.

P30-OHK = assay type: functional, cell-based; conditions: Homo sapiens;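 also: growth inhibition of the P30-OHK cell line, read out with a cell viability assay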
Description: SANGER: Inhibition of human P30-OHK cell growth in a cell viability assay.

PANC-03-27 = assay type: functional, cell-based, Homo sapiens; conditions: Homo sapiens, PANC-03-27
Description: SANGER: Inhibition of human PANC-03-27 cell growth in a cell viability assay.

SF-268 = assay type: functional, cell-based, Homo sapiens; conditions: Homo sapiens, SF-268;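 also: growth inhibition of SF-268 cells determined with a cell viability assay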
Description: SANGER: Inhibition of human SF268 cell growth in a cell viability assay.

SK-N-FI = assay type: functional, cell-based, Homo sapiens; conditions: Homo sapiens, SK-N-FI;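 also: cell viability assay measuring growth inhibition of human SK-N-FI cells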
Description: SANGER: Inhibition of human SK-N-FI cell growth in a cell viability assay.

SW1710 = assay type: functional, cell-based, Homo sapiens; conditions: Homo sapiens, SW1710;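 also: growth inhibition of SW1710 cells, determined with a cell viability assay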
Description: SANGER: Inhibition of human SW1710 cell growth in a cell viability assay.

SW1990 = assay type: functional, cell-based, Homo sapiens; conditions: Homo sapiens, SW1990;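 also: cell growth inhibition determined with a viability assay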
Description: SANGER: Inhibition of human SW1990 cell growth in a cell viability assay.

T84 = assay type: functional, cell-based, Homo sapiens; conditions: Homo sapiens, T84;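 also: growth inhibition measured with a cell viability readout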
Description: SANGER: Inhibition of human T84 cell growth in a cell viability assay.

A 172 = assay type: functional, cell-based, Homo sapiens; conditions: Homo sapiens, A 172;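 also: growth inhibition of A172 cells, measured with a cell viability readout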
Description: SANGER: Inhibition of human A172 cell growth in a cell viability assay.

ACHN = assay type: functional, cell-based, Homo sapiens; conditions: Homo sapiens, ACHN;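 also: cell viability read-out used to gauge how strongly growth of human ACHN cells is suppressed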
Description: SANGER: Inhibition of human ACHN cell growth in a cell viability assay.

AU565 = assay type: functional, cell-based, Homo sapiens; conditions: Homo sapiens, AU565;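 also: cell viability assay measuring growth inhibition of human AU565 cells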
Description: SANGER: Inhibition of human AU565 cell growth in a cell viability assay.

ASPC1 = assay type: functional, cell-based, Homo sapiens; conditions: Homo sapiens, ASPC1;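 also: growth inhibition of AsPC-1 cells, read out with a cell viability assay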
Description: SANGER: Inhibition of human AsPC-1 cell growth in a cell viability assay.

CAL-120 = assay type: functional, cell-based, Homo sapiens; conditions: Homo sapiens, CAL-120;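 also: cell growth inhibition, read out as cell viability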
Description: SANGER: Inhibition of human CAL-120 cell growth in a cell viability assay.

U-118-MG = assay type: functional, cell-based, Homo sapiens; conditions: Homo sapiens, U-118-MG
Description: SANGER: Inhibition of human U-118-MG cell growth in a cell viability assay.

UMUC3 = assay type: functional, cell-based, Homo sapiens; conditions: Homo sapiens, UMUC3;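 also: growth inhibition of human UM-UC-3 cells, read out with a cell viability assay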
Description: SANGER: Inhibition of human UM-UC-3 cell growth in a cell viability assay.

VA-ES-BJ = assay type: functional, cell-based, Homo sapiens; conditions: Homo sapiens, VA-ES-BJ;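 also: growth inhibition of the VA-ES-BJ cell line, read out by a cell viability assay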
Description: SANGER: Inhibition of human VA-ES-BJ cell growth in a cell viability assay.

SMILES: Cc1cnc(-c2cnc(NCCNc3ccc(C#N)cn3)nc2-c2ccc(Cl)cc2Cl)[nH]1 [LADUVIGLUSIB]
- pIC50 (COLO-824): < 5.59
- pIC50 (COR-L105): < 5.59
- pIC50 (COR-L88): < 5.59
- pIC50 (CP66-MEL): < 5.59
- pIC50 (CW-2): < 5.59
- pIC50 (D-247MG): 6.02
- pIC50 (DBTRG-05MG): < 5.59
- pIC50 (DMS-114): < 5.59
- pIC50 (DoTc2-4510): < 5.59
- pIC50 (ES3): < 5.59
- pIC50 (EW-16): < 5.59
- pIC50 (G-401): < 5.59
- pIC50 (GI-1): < 5.59
- pIC50 (GP5d): < 5.59
- pIC50 (HD-MY-Z): < 5.59
- pIC50 (HT-1376): < 5.59
- pIC50 (Huh-7): < 5.59
- pIC50 (IST-MES1): < 5.59
- pIC50 (K562): < 5.59
- pIC50 (K5): < 5.59
- pIC50 (LB2518-MEL): < 5.59
- pIC50 (LB771-HNC): < 5.59
- pIC50 (M14): < 5.59
- pIC50 (MDA-MB-175-VII): < 5.59
- pIC50 (MMAC-SF): < 5.59
- pIC50 (MN-60): < 5.59
- pIC50 (NB13): < 5.59
- pIC50 (NB69): < 5.59
- pIC50 (NCI-H1563): < 5.59
- pIC50 (NCI-H1650): < 5.59
- pIC50 (NCI-H23): < 5.59
- pIC50 (NCI-H596): < 5.59
- pIC50 (NCI-N87): < 5.59
- pIC50 (OAW-28): < 5.59
- pIC50 (P30-OHK): < 5.59
- pIC50 (PANC-03-27): < 5.59
- pIC50 (SF-268): < 5.59
- pIC50 (SK-N-FI): < 5.59
- pIC50 (SW1710): < 5.59
- pIC50 (SW1990): < 5.59
- pIC50 (T84): < 5.59
- pIC50 (A 172): < 5.59
- pIC50 (ACHN): < 5.59
- pIC50 (AU565): < 5.59
- pIC50 (ASPC1): < 5.59
- pIC50 (CAL-120): < 5.59
- pIC50 (U-118-MG): < 5.59
- pIC50 (UMUC3): < 5.59
- pIC50 (VA-ES-BJ): < 5.59

SMILES: CN(c1ncccc1CNc1nc(Nc2ccc3c(c2)CC(=O)N3)ncc1C(F)(F)F)S(C)(=O)=O [PF-00562271]
- pIC50 (COLO-824): < 5.59
- pIC50 (COR-L105): < 5.59
- pIC50 (COR-L88): < 5.59
- pIC50 (CP66-MEL): < 5.59
- pIC50 (CW-2): < 5.59
- pIC50 (D-247MG): < 5.59
- pIC50 (DBTRG-05MG): < 5.59
- pIC50 (DMS-114): < 5.59
- pIC50 (DoTc2-4510): < 5.59
- pIC50 (ES3): < 5.59
- pIC50 (EW-16): 5.69
- pIC50 (G-401): < 5.59
- pIC50 (GI-1): < 5.59
- pIC50 (GP5d): < 5.59
- pIC50 (HD-MY-Z): < 5.59
- pIC50 (HT-1376): < 5.59
- pIC50 (Huh-7): < 5.59
- pIC50 (IST-MES1): < 5.59
- pIC50 (K562): < 5.59
- pIC50 (K5): < 5.59
- pIC50 (LB2518-MEL): < 5.59
- pIC50 (LB771-HNC): < 5.59
- pIC50 (M14): < 5.59
- pIC50 (MDA-MB-175-VII): < 5.59
- pIC50 (MMAC-SF): < 5.59
- pIC50 (MN-60): < 5.59
- pIC50 (NB13): < 5.59
- pIC50 (NB69): < 5.59
- pIC50 (NCI-H1563): < 5.59
- pIC50 (NCI-H1650): < 5.59
- pIC50 (NCI-H23): < 5.59
- pIC50 (NCI-H596): < 5.59
- pIC50 (NCI-N87): < 5.59
- pIC50 (OAW-28): < 5.59
- pIC50 (P30-OHK): < 5.59
- pIC50 (PANC-03-27): < 5.59
- pIC50 (SF-268): < 5.59
- pIC50 (SK-N-FI): < 5.59
- pIC50 (SW1710): 5.79
- pIC50 (SW1990): < 5.59
- pIC50 (T84): < 5.59
- pIC50 (A 172): < 5.59
- pIC50 (ACHN): < 5.59
- pIC50 (AU565): < 5.59
- pIC50 (ASPC1): < 5.59
- pIC50 (CAL-120): < 5.59
- pIC50 (U-118-MG): < 5.59
- pIC50 (UMUC3): < 5.59
- pIC50 (VA-ES-BJ): 5.72
